Measured values published in ChEMBL document CHEMBL3217650, “Discovery of novel selective Sigma-1 ligands as cognitive enhancers” (Medchemcomm, 2011).
Values after ≈ are worked out from the molar mass of the structure shown. Active and inactive are the calls of the source. No cut-off for these calls is given here.

Legend:
[1] = Intrinsic clearance in rat liver microsomes measured per mg of protein; assay type: ADME; details: read-out: CLH
[2] = target: 5-hydroxytryptamine receptor 2A (Homo sapiens) (UniProt P28223); test: Binding affinity to 5HT-2a receptor (unknown origin) at 10 uM by displacement assay relative to control
5-hydroxytryptamine receptor 2A (Homo sapiens), sequence (P28223 whole entry): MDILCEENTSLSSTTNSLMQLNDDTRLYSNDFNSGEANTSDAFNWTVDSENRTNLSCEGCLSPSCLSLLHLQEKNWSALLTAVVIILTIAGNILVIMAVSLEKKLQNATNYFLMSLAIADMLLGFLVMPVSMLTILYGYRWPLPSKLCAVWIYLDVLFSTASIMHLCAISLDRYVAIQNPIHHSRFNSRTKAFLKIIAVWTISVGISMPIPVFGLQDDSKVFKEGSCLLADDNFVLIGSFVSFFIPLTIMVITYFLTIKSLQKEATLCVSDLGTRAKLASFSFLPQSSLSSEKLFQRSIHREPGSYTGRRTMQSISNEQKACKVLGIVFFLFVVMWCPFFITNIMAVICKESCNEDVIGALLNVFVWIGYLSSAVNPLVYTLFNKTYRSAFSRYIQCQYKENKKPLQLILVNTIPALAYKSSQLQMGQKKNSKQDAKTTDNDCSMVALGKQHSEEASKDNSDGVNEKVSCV

[3] = Octanol-water distribution coefficient, log D of the compound at pH 7.4; assay type: physicochemical
[4] = target: Sigma non-opioid intracellular receptor 1 (Homo sapiens, UniProt Q99720); test: Displacement of [3H]-pentazocine from human recombinant sigma-1 receptor expressed in CHO cells after 180 mins by beta counting analysis; assay type: cell-based
Sigma non-opioid intracellular receptor 1, sequence (Q99720 whole entry): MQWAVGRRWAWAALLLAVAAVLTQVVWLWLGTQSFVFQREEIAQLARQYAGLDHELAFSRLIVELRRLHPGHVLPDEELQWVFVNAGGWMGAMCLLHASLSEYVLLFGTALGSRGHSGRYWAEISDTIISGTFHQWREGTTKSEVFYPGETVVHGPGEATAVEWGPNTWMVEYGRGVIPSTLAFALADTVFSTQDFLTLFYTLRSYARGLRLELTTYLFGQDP

[5] = target: Kappa-type opioid receptor (Homo sapiens) (UniProt P41145); test: Binding affinity to kappa opioid receptor (unknown origin) at 10 uM by displacement assay relative to control
Kappa-type opioid receptor (Homo sapiens), sequence (P41145 whole entry): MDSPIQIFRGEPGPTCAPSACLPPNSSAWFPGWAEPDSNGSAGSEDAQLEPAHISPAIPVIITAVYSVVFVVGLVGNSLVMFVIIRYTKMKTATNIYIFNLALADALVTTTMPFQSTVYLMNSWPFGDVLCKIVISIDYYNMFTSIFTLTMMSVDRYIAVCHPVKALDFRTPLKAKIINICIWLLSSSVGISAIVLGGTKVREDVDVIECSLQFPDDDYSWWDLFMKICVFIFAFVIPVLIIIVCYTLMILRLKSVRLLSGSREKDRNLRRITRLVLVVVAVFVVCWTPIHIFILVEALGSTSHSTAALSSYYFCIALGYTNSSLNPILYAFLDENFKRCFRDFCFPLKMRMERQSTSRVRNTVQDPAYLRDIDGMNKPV

[6] = organism: Rattus norvegicus; test: Displacement of [3H]1,3-di-O-tolylguanidine from sigma-2 receptor in rat cerebral cortex at 10 uM relative to control; assay type: tissue-based
[7] = Apparent permeability across apical to basolateral side in human Caco2 cells at 20 uM measured up to 3 hrs; assay type: ADME, cell-based; details: Caco-2
[8] = system: Mus musculus; test: Antiamnesic activity in C57BL6/J mouse assessed as reduction of scopolamine-induced memory deficit at 0.03 to 1 mg/kg, ip administered 40 mins prior to acquisition trial by two-trial object recognition test; assay type: functional, organism-based
[9] = target: Acetylcholinesterase (Homo sapiens) (UniProt P22303); test: Binding affinity to AChE (unknown origin) at 10 uM by displacement assay relative to control
[10] = Ratio of drug level in brain to plasma in C57BL6/J mouse at 1 mg/kg, ip measured at 40 mins; assay type: ADME, organism-based; design: dose 1 mg/kg, route intraperitoneal; details: brain and plasma, read-out: BPR
[11] = Intrinsic clearance in mouse liver microsomes measured per mg of protein; assay type: ADME; details: read-out: CLH
[12] = target: Mu-type opioid receptor (Homo sapiens) (UniProt P35372); test: Binding affinity to mu opioid receptor (unknown origin) at 10 uM by displacement assay relative to control
Mu-type opioid receptor (Homo sapiens), sequence (P35372 whole entry): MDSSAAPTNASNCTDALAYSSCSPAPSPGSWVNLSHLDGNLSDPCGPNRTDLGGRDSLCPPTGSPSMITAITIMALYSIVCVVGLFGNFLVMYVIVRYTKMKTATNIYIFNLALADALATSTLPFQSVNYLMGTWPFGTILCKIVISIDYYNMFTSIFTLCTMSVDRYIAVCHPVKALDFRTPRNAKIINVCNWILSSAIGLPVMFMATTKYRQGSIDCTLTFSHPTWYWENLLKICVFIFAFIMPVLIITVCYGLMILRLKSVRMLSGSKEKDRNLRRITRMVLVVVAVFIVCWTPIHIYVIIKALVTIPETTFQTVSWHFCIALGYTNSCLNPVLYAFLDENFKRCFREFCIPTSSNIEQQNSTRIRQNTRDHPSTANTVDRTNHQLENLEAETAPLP

[13] = Dissociation constant, pKa of the compound; assay type: physicochemical
[14] = target: Opioid receptor (Rattus norvegicus) (UniProt P33533+P34975+P33535); test: Displacement of [3H]-naloxone from opioid receptor in rat cerebral cortex at 10 uM relative to control; assay type: tissue-based
[15] = target: 5-hydroxytryptamine receptor 6 (Homo sapiens) (UniProt P50406); test: Binding affinity to 5HT-6 receptor (unknown origin) at 10 uM by displacement assay relative to control
[16] = target: Sodium-dependent noradrenaline transporter (Homo sapiens) (UniProt P23975); test: Binding affinity to NE transporter (unknown origin) at 10 uM by displacement assay relative to control
Sodium-dependent noradrenaline transporter (Homo sapiens), sequence (P23975 whole entry): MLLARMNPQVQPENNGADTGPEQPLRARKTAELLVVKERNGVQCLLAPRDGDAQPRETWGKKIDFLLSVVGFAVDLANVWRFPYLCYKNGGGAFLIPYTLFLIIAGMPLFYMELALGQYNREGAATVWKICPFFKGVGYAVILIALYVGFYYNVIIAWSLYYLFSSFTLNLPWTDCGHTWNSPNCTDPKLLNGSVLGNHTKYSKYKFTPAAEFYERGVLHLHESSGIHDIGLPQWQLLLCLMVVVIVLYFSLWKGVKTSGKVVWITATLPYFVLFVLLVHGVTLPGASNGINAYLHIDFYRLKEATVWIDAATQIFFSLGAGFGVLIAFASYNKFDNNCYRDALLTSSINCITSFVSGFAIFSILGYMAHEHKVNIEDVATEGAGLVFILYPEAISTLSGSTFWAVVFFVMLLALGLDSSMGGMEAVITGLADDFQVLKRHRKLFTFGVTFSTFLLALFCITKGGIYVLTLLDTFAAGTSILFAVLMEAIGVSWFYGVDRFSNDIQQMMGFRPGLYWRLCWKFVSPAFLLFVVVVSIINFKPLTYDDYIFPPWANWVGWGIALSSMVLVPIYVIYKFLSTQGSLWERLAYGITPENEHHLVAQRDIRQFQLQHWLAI

[17] = target: D(4) dopamine receptor (Homo sapiens) (UniProt P21917); test: Binding affinity to dopamine D4 receptor (unknown origin) at 10 uM by displacement assay relative to control
D(4) dopamine receptor (Homo sapiens), sequence (P21917 whole entry): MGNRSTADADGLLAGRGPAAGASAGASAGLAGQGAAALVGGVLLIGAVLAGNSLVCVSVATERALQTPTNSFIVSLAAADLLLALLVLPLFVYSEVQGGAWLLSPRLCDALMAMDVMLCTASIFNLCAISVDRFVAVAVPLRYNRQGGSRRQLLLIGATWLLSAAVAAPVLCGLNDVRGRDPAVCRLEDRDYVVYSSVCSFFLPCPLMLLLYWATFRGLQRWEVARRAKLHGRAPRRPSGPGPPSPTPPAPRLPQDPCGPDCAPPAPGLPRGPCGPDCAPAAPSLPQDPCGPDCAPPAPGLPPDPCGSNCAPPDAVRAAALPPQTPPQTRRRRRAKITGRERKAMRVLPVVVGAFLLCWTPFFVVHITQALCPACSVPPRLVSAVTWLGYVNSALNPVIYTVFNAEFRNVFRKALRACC

[18] = target: 5-hydroxytryptamine receptor 7 (Homo sapiens) (UniProt P34969); test: Binding affinity to 5HT-7 receptor (unknown origin) at 10 uM by displacement assay relative to control
[19] = target: Sodium-dependent dopamine transporter (Homo sapiens) (UniProt Q01959); test: Binding affinity to DA transporter (unknown origin) at 10 uM by displacement assay relative to control
Sodium-dependent dopamine transporter (Homo sapiens), sequence (Q01959 whole entry): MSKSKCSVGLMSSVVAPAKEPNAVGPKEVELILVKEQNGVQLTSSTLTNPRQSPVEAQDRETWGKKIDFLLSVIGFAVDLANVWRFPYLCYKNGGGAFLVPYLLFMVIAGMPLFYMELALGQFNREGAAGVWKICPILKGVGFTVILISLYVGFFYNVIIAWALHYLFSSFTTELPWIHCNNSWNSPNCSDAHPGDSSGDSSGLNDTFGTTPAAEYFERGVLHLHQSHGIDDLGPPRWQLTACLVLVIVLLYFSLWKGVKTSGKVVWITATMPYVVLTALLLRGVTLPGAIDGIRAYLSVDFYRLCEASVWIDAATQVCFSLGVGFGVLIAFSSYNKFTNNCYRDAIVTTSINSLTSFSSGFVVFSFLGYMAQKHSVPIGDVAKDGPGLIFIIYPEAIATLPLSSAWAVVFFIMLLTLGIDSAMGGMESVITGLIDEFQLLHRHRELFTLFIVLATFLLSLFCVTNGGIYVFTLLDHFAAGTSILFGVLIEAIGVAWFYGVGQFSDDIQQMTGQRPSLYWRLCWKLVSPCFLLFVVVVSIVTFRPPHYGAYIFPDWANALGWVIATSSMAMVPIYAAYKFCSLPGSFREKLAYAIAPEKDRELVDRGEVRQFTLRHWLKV

[20] = target: Histamine H1 receptor (Homo sapiens) (UniProt P35367); test: Binding affinity to histamine H1 receptor (unknown origin) at 10 uM by displacement assay relative to control
Histamine H1 receptor (Homo sapiens), sequence (P35367 whole entry): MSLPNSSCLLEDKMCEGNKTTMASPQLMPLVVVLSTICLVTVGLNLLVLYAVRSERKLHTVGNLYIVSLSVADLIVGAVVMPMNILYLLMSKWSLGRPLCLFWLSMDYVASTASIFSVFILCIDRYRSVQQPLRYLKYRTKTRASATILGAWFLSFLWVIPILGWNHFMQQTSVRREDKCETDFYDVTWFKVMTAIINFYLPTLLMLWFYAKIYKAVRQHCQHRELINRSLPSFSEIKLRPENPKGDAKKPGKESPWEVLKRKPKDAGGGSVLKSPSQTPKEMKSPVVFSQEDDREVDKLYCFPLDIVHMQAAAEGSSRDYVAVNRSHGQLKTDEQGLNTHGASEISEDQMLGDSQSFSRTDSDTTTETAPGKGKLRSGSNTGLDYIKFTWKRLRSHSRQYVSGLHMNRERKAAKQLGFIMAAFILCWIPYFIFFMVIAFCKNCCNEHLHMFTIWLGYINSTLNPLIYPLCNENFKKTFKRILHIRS

[21] = organism: Homo sapiens; test: Binding affinity to […] channel (unknown origin) at 10 uM by displacement assay relative to control
[22] = target: Histamine H3 receptor (Homo sapiens) (UniProt Q9Y5N1); test: Binding affinity to histamine H3 receptor (unknown origin) at 10 uM by displacement assay relative to control
Histamine H3 receptor (Homo sapiens), sequence (Q9Y5N1 whole entry): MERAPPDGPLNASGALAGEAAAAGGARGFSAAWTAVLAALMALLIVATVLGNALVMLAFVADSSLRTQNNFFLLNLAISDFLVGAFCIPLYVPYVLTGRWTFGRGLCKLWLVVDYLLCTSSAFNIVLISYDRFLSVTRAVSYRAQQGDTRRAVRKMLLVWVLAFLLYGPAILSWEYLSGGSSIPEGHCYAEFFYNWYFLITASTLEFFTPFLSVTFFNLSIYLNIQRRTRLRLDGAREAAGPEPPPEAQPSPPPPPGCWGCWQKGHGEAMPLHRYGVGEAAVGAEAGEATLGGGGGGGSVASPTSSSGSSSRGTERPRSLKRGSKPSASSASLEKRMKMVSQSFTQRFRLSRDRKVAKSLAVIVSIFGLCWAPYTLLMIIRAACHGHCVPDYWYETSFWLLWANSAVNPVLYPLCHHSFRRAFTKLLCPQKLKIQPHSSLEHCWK

[23] = system: Mus musculus; test: Antiamnesic activity in C57BL6/J mouse assessed as reduction of scopolamine-induced memory deficit at 1 to 23 mg/kg, ip administered 40 mins prior to acquisition trial by two-trial object recognition test; assay type: functional, organism-based
[24] = Intrinsic clearance in human liver microsomes measured per mg of protein; assay type: ADME; details: read-out: CLH
[25] = organism: Homo sapiens; test: Binding affinity to Ca2+ channel (unknown origin) at 10 uM by displacement assay relative to control
[26] = Solubility of the compound at pH 7.4; assay type: physicochemical; details: buffer
[27] = target: Adrenergic receptor alpha-1 (Homo sapiens) (UniProt P35348+P25100+P35368); test: Binding affinity to adrenergic alpha-1 receptor (unknown origin) at 10 uM by displacement assay relative to control; assay type: protein assay
[28] = target: Sodium-dependent serotonin transporter (Homo sapiens) (UniProt P31645); test: Binding affinity to 5HT transporter (unknown origin) at 10 uM by displacement assay relative to control
Sodium-dependent serotonin transporter (Homo sapiens), sequence (P31645 whole entry, looked up): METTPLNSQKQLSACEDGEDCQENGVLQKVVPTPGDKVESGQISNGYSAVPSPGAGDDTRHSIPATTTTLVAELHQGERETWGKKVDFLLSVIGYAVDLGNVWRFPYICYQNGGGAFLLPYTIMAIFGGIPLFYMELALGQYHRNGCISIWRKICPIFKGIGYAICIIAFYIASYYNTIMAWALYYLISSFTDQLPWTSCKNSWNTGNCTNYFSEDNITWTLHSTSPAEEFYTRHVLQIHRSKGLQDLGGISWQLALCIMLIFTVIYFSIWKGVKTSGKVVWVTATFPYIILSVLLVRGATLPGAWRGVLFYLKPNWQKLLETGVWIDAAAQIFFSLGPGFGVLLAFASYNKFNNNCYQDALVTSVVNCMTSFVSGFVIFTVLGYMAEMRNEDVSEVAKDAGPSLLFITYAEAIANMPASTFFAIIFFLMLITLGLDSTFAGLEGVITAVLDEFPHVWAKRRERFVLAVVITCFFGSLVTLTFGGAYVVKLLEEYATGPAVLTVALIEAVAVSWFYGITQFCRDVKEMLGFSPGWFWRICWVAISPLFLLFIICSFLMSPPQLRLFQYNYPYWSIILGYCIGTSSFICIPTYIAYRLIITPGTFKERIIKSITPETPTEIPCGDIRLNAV

[29] = target: D(2) dopamine receptor (Homo sapiens) (UniProt P14416); test: Binding affinity to dopamine D2 receptor (unknown origin) at 10 uM by displacement assay relative to control
[30] = target: T1, Alpha-2C adrenergic receptor (Homo sapiens) (UniProt P18825); test: Binding affinity to adrenergic alpha-2c receptor (unknown origin) at 10 uM by displacement assay relative to control
T1 sequence (whole entry): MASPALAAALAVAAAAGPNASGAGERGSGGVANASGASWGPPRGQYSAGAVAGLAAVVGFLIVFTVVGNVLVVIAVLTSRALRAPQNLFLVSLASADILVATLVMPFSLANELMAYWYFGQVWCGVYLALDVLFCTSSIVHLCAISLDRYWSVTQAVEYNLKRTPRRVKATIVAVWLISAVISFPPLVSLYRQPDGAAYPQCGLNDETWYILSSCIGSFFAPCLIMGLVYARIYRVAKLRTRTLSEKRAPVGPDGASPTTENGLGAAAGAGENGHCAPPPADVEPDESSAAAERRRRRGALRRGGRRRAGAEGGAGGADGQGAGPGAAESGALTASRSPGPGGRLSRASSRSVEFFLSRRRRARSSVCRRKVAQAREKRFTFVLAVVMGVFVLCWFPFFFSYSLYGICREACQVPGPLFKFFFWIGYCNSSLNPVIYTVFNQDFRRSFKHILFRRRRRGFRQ

[31] = target: D(3) dopamine receptor (Homo sapiens) (UniProt P35462); test: Binding affinity to dopamine D3 receptor (unknown origin) at 10 uM by displacement assay relative to control
[32] = target: Alpha-2B adrenergic receptor (Homo sapiens) (UniProt P18089); test: Binding affinity to adrenergic alpha-2b receptor (unknown origin) at 10 uM by displacement assay relative to control
[33] = organism: Rattus norvegicus; test: Displacement of [3H]1,3-di-O-tolylguanidine from sigma-2 receptor in rat cerebral cortex; assay type: tissue-based; details: concentration not given here
[34] = target: 5-hydroxytryptamine receptor 1A (Homo sapiens) (UniProt P08908); test: Binding affinity to 5-HT1a receptor (unknown origin) at 10 uM by displacement assay relative to control
[35] = target: Muscarinic acetylcholine receptor (Rattus norvegicus) (UniProt P08482+P08483+P08485+P08911+P10980); test: Displacement of [3H]-QNB from muscarinic receptor in rat cerebral cortex at 10 uM relative to control; assay type: tissue-based

Row | Compound | microsomal CLint [1] | inhibition [2] | logD ([3]; read-out: logD) | Ki [4] | pKa [13] | other results
1 | O=C(NCCN1CCN(C(=O)c2c(F)cccc2Cl)CC1)[C@H]1C[C@@H]1c1ccccc1 (racemic) | 81 µL/min/mg | > 90% | 2.3 | 631 nM |  | 
2 | C=CCN1CC[C@]2(C)c3cc(O)ccc3C[C@@H]1[C@@H]2C | 313 µL/min/mg |  |  | 158 nM |  | inhibition [5]: > 90%; inhibition [6]: 29%; Papp A→B at 3 h, 20 µM [7]: 20.2 ×10⁻⁶ cm/s; Activity [8]: Active; inhibition [9]: 50%; Kp at 40 min [10]: 5.64; microsomal CLint [11]: 17 µL/min/mg; inhibition [12]: 50%
3 | O=C(NCCCNC1CCCCC1)[C@H]1C[C@@H]1c1ccccc1 (stereo in doubt; (-)-1) [listing 1 of 2 here] |  |  | 1.1 | 158 nM |  | 
4 | CCN(CC)CCNC(=O)[C@H]1C[C@@H]1c1ccccc1 (racemic) |  | 50% | 0.6 | 126 nM | 8.9 | inhibition [14]: > 90%
5 | O=C(NCCN1CCN(Cc2ccccc2)CC1)[C@H]1C[C@@H]1c1ccccc1 (racemic) | 122 µL/min/mg | 50% | 2.8 | 15.8 nM |  | inhibition [5]: 50%; inhibition [15]: 50%; inhibition [16]: 50%; inhibition [17]: > 90%; inhibition [18]: 50%; inhibition [19]: 50%; inhibition [12]: 50%
6 | O=C(NCCN1CCN(Cc2ccc(Cl)c(Cl)c2)CC1)[C@H]1C[C@@H]1c1ccccc1 (racemic) | 200 µL/min/mg | > 90% | > 4 | 10 nM |  | inhibition [20]: 50%; inhibition [21]: 50%
7 | O=C(NCCCNC1CCCCC1)[C@H]1C[C@@H]1c1ccccc1 (racemic) [listing 1 of 2 here] |  |  |  | 200 nM | 10.1 | logD [3]: 1.3
8 | O=C(NCCCNC1CCCCC1)[C@H]1C[C@@H]1c1ccccc1 (stereo in doubt; (-)-1) [listing 2 of 2 here] |  |  |  |  |  | inhibition [21]: 50%
9 | O=C([C@H]1C[C@@H]1c1ccccc1)N1CCC(N2CCCCC2)CC1 (racemic) | 32 µL/min/mg |  | 1.1 | 79.4 nM | 9.3 | inhibition [6]: 50%; inhibition [22]: 50%; Activity [23]: Active; microsomal CLint [24]: 56 µL/min/mg; Papp A→B at 3 h, 20 µM [7]: 16.6 ×10⁻⁶ cm/s; inhibition [25]: 50%; solubility [26]: 1100 µg/mL (≈ 3.52 mM); Kp at 40 min [10]: 13.5; microsomal CLint [11]: 50 µL/min/mg
10 | O=C(NC1CCC(N2CCCCC2)CC1)[C@H]1C[C@@H]1c1ccccc1 (mixture of isomers) |  |  | 0.9 | 1260 nM | 9.6 | 
11 | O=C([C@H]1C[C@@H]1c1ccccc1)N1CCC(N2CCCC2)CC1 (racemic) | 25 µL/min/mg |  | 0.7 | 200 nM | 9.3 | 
12 | O=C([C@H]1C[C@@H]1c1ccccc1)N1CCN(c2ccccc2)CC1 (racemic) |  |  | 3.8 | 1260 nM | < 2.5 | 
13 | O=C(NCCN1CCN(Cc2c(F)cccc2Cl)CC1)[C@H]1C[C@@H]1c1ccccc1 (racemic) | 283 µL/min/mg |  | 3.7 | 25.1 nM |  | 
14 | O=C(NCCN1CCCC1)[C@H]1C[C@@H]1c1ccccc1 (racemic) |  | > 90% | 0.9 | 63.1 nM | 9.2 | 
15 | COc1ccc(CCN2CCN(CCCc3ccccc3)CC2)cc1OC |  | 50% |  |  |  | inhibition [6]: 99%; inhibition [27]: > 90%; inhibition [22]: 50%; inhibition [28]: 50%; inhibition [29]: 50%; inhibition [30]: 50%; inhibition [16]: > 90%; inhibition [17]: 50%; inhibition [31]: 50%; inhibition [19]: 50%
16 | CC(C)N(CCNC(=O)[C@H]1C[C@@H]1c1ccccc1)C(C)C (racemic) | > 300 µL/min/mg | 50% | 1 | 63.1 nM | 9.7 | 
17 | O=C(NCCCNC1CCCCC1)[C@H]1C[C@@H]1c1ccccc1 (stereo in doubt; (+)-1) [listing 1 of 2 here] | 147 µL/min/mg |  |  | 158 nM |  | 
18 | O=C(NCCCNC1CCCCC1)[C@H]1C[C@@H]1c1ccccc1 (stereo in doubt; (+)-1) [listing 2 of 2 here] |  | > 90% |  |  |  | inhibition [27]: 50%; inhibition [32]: 50%; inhibition [33]: 6.6%; inhibition [21]: 50%; inhibition [30]: 50%; inhibition [25]: 50%
19 | CN(C)CC(C)(C)CNC(=O)[C@H]1C[C@@H]1c1ccccc1 (racemic) |  |  | 0.8 | 398 nM | 8.9 | 
20 | O=C([C@H]1C[C@@H]1c1ccc(F)cc1)N1CCC(CNCC2CCCCC2)CC1 (racemic) | 17 µL/min/mg |  |  | 79.4 nM |  | inhibition [34]: 50%; inhibition [21]: 50%; inhibition [35]: 50%
21 | O=C(NCCCN1CCN(Cc2c(F)cccc2Cl)CC1)[C@H]1C[C@@H]1c1ccccc1 (racemic) | 305 µL/min/mg | > 90% | 3.5 | 25.1 nM |  | inhibition [27]: 50%; inhibition [20]: 50%; inhibition [30]: 50%; inhibition [25]: > 90%
22 | O=C([C@H]1C[C@@H]1c1ccc(F)cc1)N1CCC(N2CCCCC2)CC1 (racemic) |  |  |  | 100 nM |  | inhibition [6]: 61%
23 | O=C(NCCCNC1CCCCC1)[C@H]1C[C@@H]1c1ccccc1 (racemic) [listing 2 of 2 here] |  | 50% |  |  |  | inhibition [27]: 50%; inhibition [25]: > 90%
